Experimental data from patent US20210015725A1, “SKINCARE PRODUCT AND METHOD OF PREPARATION THEREOF” (FE:I BEAUTY TECH, INC., priority 2012, published 2021).

Legend:
[1] = calcium carbonate 0-10%, various time periods of incubation
Experimental: Precipitation of iron by calcium carbonate: Iron was added to extracellular matrix, followed by the addition of different concentrations of calcium carbonate (0-10%) (FIG. 5). After various time periods of incubation, a small part of the mixture was filtered using a membrane with a molecular weight cutoff of 5,000 Dalton as previously described in FIG. 4. Levels of iron in the filtrates were determined by Ferrozine.

Ferritin = Ferritin (Homo sapiens, UniProt P02792+P02794); test: Reduction of iron from ferritin by vitamin C; format: biochemical
Ferritin, sequence (P02794 whole entry, species assumed): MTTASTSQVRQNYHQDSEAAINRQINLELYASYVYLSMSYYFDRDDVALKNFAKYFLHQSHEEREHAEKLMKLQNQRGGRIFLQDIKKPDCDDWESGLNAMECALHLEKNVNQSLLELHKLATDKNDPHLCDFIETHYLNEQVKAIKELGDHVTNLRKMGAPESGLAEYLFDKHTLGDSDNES
Ferritin, sequence (P02792 whole entry, species assumed): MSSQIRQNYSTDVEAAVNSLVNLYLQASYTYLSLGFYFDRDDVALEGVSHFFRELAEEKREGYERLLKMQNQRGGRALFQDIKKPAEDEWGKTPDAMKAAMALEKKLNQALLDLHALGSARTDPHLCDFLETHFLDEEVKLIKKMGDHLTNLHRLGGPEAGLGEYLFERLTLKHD
Experimental: Reduction of iron from ferritin by vitamin C: Ferritin at a concentration of 1 mg/ml was incubated with various concentrations of vitamin C (0-500 μM). […] Levels of iron in the filtrates were measured by Ferrozine (Sigma, St. Louis, Mo.), which forms a stable magenta-colored complex (Fe^2+-ferrozine) with a maximum absorption at 560 nm. In brief, 30 μl sample was added to 135 μl buffer. After 10 min incubation at 37° C., the absorbance was measured at 560 nm using a UV—visible microplate reader (SpectraMax Plus, Molecular Devices, Sunnyvale, Calif.). Then, 5 μl iron chromogenic agent (ferrozine) was added and after 15 min incubation, the absorbance was measured again at 560 nm. The difference in absorbance was used to calculate iron concentration after comparing to the iron standard curve. To determine whether iron is completely released from ferritin, atomic absorption (AA) was used to measure total iron in ferritin.

O=C([O-])[O-].[Ca+2] [calcium carbonate]
precipitation of iron (iron in filtrates by Ferrozine) [1]: can effectively precipitate iron

O=C1O[C@H]([C@@H](O)CO)C(O)=C1O [vitamin C]
completeness of iron release from ferritin (atomic absorption, total iron) (Ferritin; after vitamin C reduction): all iron in ferritin is released
release of iron from ferritin (iron in filtrates measured by Ferrozine) (Ferritin; ferritin 1 mg/ml, vitamin C 0-500 μM, one hour incubation): effective in releasing iron from ferritin
